The values that follow come from patent US8008491B2, “Substituted AZA-indoles as inhibitors of poly(ADP-ribose) polymerase (PARP)” (Aventis Pharmaceuticals, Inc., priority 2003, dated 2011).

As usually defined, the pEC50 is −log10 of the EC50, conventionally taken in molar units. A low value points to a large EC50. As usually defined, the IC50 is the concentration that gives 50% inhibition.

pEC50: −log10 of the molar value. Where a name gives a salt, the structure may show the parent alone.

The first assay has as its system HL-60 (human leukemia) cells. Briefly: Cell-based assay: protection from cell death induced by serum deprivation (Alamar Blue). As to conditions: median effective concentration preventing cell death, HL-60, 0.1% FCS, 24 hr. As for the experimental part:
HL-60 (human leukemia) cells are grown and maintained using standard procedures in RPMI 1640+Glutamax medium supplemented with 10% fetal calf serum (FCS). For assay, cells are suspended in medium supplemented with 0.1% FCS at 0.5 million cells/mL and seeded into 96 well plates (100 μL/well). After preincubation for 3 hrs, cells are treated with compound for 1 hr, then Alamar Blue (Serotec) is added to the cells. After a further 24 hr incubation, fluorescence is measured (ex 560 nm, em 590 nm). Decrease in fluorescence compared to control cells (10 μM of a potent PARP inhibitor) is a measure of cell death. Increased fluorescence in the presence of test compound indicates protection from cell death induced by serum deprivation. For detection of polyADP-ribosylation, cells are subjected to serum deprivation in the presence and absence of compound. Cells are lysed and proteins are run on an SDS-PAGE gel. PolyADP-ribosylated proteins are detected with antibody to polyADP-ribose (Alexis or Calbiochem).
The results obtained from this study are expressed as EC50 (median effective concentration of the test compound that was effective in preventing the cell death—expressed in micromolar (μM) concentration) for each of the tested compounds and are summarized in Table 4.
(Alamar Blue is a resazurin reagent that responds to reducing activity.)
`O=Cc1c(N2CCN(CCO)CC2)n(-c2ccccc2)c2ccccc12` [Example 2, 2-[4-(2-hydroxyethyl)piperazin-1-yl]-1-phenyl-1H-indole-3-carboxaldehyde] gave a negative logarithm of the EC50 (pEC50) of 5.47. The same measure, in the same setting: in the case of `Cn1c(N2CCNCC2)c(C=O)c2ccccc21` [Example 9, 2-(Piperazin-1-yl)-1-methyl-1H-indole-3-carboxaldehyde] it was 5.10.

For the next assay, the system named is Male Sprague-Dawley rats. Nature of the assay: Myocardial ischemia model: coronary artery occlusion and reperfusion, infarct size. The class given is in vivo, rat. The following applies: 10 mg/kg i.v. 5 min prior to reperfusion (Example 3); 20 min occlusion, 60 min reperfusion. The text has this:
Male Sprague-Dawley rats are anesthetized and the chest is opened. A thin silk thread is placed around the left anterior descending coronary artery. The silk is passed through a plastic tube and the chest is closed. After stable hemodynamics, the coronary artery is occluded by applying tension to the thread via the tube. Successful occlusion is confirmed by a decrease in systolic blood pressure and alterations in ECG. Reperfusion is initiated by releasing the tension on the ligature.
For testing efficacy of Example 3 in this animal model, animals are divided into three groups. One group received the compound of Example 3 at 10 mg/kg i.v. 10 min prior to occlusion. A second group received compound of Example 3 at the same dose 5 min prior to reperfusion. The third group served as vehicle control. The period of occlusion is 20 min, followed by reperfusion for 60 min. After sacrifice infarct size is measured by staining of heart tissue slices with triphenyltetrazolium chloride and expressed as a percent (%) of area at risk.
A similar study is carried out with cariporide, a reference standard.
Turning to `CC(C)c1ccc(C(=O)NC(=N)N)cc1S(C)(=O)=O` [cariporide, reference compound], the “infarct size (% of area at risk), effect when given prior to reperfusion” value is reported as “no effect”.

Staying with this assay, now noted: 10 mg/kg i.v. 10 min prior to occlusion (Example 3); 20 min occlusion, 60 min reperfusion.
Take `CC(C)c1ccc(C(=O)NC(=N)N)cc1S(C)(=O)=O` [cariporide, reference compound]: the “infarct size (% of area at risk), effect when given prior to ischemia” value is recorded as “significant protection”.

The target of the next assay is human PARP (PARP1) (Homo sapiens, UniProt P09874). Nature of the assay: PARP enzyme assay of Table 3 (radioactive enzyme assay or 'ELISA' enzyme assay).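 Further: Baculovirus-expressed PARP1 from insect cells, activity read as tritium from labeled NAD in acid-precipitated protein, or as biotin-NAD built into plate-bound histone by absorbance at 450 nm.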 As to conditions: IC50 (μM), fifty percent inhibitory concentration; recombinant human PARP. For orientation: An ELISA detects its analyte on a solid surface through an enzyme-linked reagent.
Chain of human PARP (PARP1) (P09874 whole entry): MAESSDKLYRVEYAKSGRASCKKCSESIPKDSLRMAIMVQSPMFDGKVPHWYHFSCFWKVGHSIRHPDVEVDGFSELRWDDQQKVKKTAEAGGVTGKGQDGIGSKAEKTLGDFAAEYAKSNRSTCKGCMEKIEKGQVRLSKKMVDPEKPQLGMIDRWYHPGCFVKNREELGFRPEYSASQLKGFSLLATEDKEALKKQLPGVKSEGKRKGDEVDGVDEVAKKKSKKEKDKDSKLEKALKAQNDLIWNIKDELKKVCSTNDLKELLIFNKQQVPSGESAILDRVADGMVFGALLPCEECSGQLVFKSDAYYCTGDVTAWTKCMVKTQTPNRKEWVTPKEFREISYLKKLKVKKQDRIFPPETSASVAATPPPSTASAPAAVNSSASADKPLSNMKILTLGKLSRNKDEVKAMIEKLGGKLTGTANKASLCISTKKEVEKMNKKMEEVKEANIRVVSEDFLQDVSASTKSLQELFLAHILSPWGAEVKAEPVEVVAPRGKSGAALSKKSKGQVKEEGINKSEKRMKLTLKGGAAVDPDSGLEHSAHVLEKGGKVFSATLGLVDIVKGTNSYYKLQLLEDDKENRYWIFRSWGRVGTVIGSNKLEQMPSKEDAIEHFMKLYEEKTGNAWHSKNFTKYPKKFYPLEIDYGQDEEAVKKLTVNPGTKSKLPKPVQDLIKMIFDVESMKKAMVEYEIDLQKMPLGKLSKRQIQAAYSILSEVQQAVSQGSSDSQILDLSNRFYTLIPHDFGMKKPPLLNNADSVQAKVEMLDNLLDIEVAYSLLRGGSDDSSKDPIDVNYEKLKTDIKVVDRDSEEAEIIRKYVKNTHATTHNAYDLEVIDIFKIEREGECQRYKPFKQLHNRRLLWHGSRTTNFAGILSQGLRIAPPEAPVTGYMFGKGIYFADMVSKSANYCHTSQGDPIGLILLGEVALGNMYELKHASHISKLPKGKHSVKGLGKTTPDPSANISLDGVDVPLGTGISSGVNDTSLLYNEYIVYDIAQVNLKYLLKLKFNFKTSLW
Experimental: The compounds of this invention are then tested with this enzyme preparation using either the radioactive enzyme assay or by the “ELISA” enzyme assay as set forth below.
Incorporation of radioactivity from labeled NAD into acid-precipitated protein is measured. The reaction mixture (volume 100 μL or 50 μL, in a test-tube or 96-well plate) contained 100 μg/mL calf thymus DNA (sonicated), 100 μg/mL histones, 100 mM Tris (pH 8.0), 1.0 mM DTT, 10 mM MgCl2, NAD (200 μm, 0.65 microcurie/mL), and varying amounts of enzyme. The reaction was incubated for 10 min at 37° C. or at room temperature for 60 min. The reaction was stopped and protein precipitated by addition of ice-cold trichloroacetic acid (TCA; 10% or 20% aqueous w/v). After brief storage in ice or at 4° C. for 2 hrs, the reaction mixture is filtered under vacuum through a glass fiber filter (2.5 cm disc, or 96-well filter plate). After washing with TCA and ethanol, the filter is dried and counted for tritium CPM after addition of scintillation fluid.
Incorporation of biotin-NAD into histone coated on plate is measured. A 96-well protein-binding EIA plate is coated with histone and blocked with bovine serum albumin. The reaction mixture (50 μL) contained DNA, buffer, enzyme, (test compound), and 250 μM of NAD and 5 μL of biotin-NAD (Trevigen). After reaction at room temperature the wells are washed and treated with Extravidin (Sigma). After incubation and washing color is developed with the peroxidase substrate TMB (Sigma). The TMB reaction is quenched with 2M sulfurric acid and the absorbance at 450 nm is read.
As for `O=Cc1c(N2CCSCC2)n(-c2ccccc2)c2ccccc12` [Example 1, 1-Phenyl-2-(thiomorphin-4-yl)-1H-indole-3-carboxaldehyde], the 50% inhibitory concentration (IC50) worked out at 15.1 µM. Still for that read-out and setting: next, `O=Cc1c(N2CCN(CCO)CC2)n(-c2ccccc2)c2ccccc12` [Example 2, 2-[4-(2-hydroxyethyl)piperazin-1-yl]-1-phenyl-1H-indole-3-carboxaldehyde]: 4.6 µM; `Cn1c(N2CCNCC2)c(C=O)c2ccccc21` [Example 9, 2-(Piperazin-1-yl)-1-methyl-1H-indole-3-carboxaldehyde]: 27.5 µM; `O=Cc1c(N2CCNCC2)n(-c2cccc([N+](=O)[O-])c2)c2ccccc12` [Example 11B-1, 2-(Piperazin-1-yl)-1-(3-nitrophenyl)-1H-indole-3-carboxaldehyde]: 2.5 µM. Same read-out and setting: in the case of `O=Cc1c(N2CCNCC2)n(-c2cccc3ccccc23)c2ccccc12` [Example 11B-2, 2-(Piperazin-1-yl)-1-(1-naphthyl)-1H-indole-3-carboxaldehyde] it was 4 µM. Same read-out and setting: in the case of `COc1ccc(-n2c(N3CCNCC3)c(C=O)c3ccccc32)cc1` [Example 11B-3, 2-(Piperazin-1-yl)-1-(4-methoxyphenyl)-1H-indole-3-carboxaldehyde] it was 4.5 µM; in that of `CC(C)(C)c1ccc(-n2c(N3CCNCC3)c(C=O)c3ccccc32)cc1` [Example 11B-4, 2-(Piperazin-1-yl)-1-(4-tert-butylphenyl)-1H-indole-3-carboxaldehyde], 10 µM.

As for `O=Cc1c(N2CCNCC2)n(-c2ccc(Br)cc2)c2ccccc12` [Example 11B-5, 2-(Piperazin-1-yl)-1-(4-bromophenyl)-1H-indole-3-carboxaldehyde], the IC50 turned out to be 3 µM. Still for that read-out and setting: in the case of `O=Cc1c(N2CCNCC2)n(-c2ccc(Cl)cc2)c2ccccc12` [Example 11B-6, 2-(Piperazin-1-yl)-1-(4-chlorophenyl)-1H-indole-3-carboxaldehyde] it was 4 µM. Still for that read-out and setting: in the case of `O=Cc1c(N2CCNCC2)n(-c2ccc(F)c(Cl)c2)c2ccccc12` [Example 11B-7, 2-(Piperazin-1-yl)-1-(3-chloro-4-fluorophenyl)-1H-indole-3-carboxaldehyde] it was 4 µM; in that of `COc1cccc(-n2c(N3CCNCC3)c(C=O)c3ccccc32)c1` [Example 11B-8, 2-(Piperazin-1-yl)-1-(3-methoxyphenyl)-1H-indole-3-carboxaldehyde], 5.5 µM; in that of `CSc1ccc(-n2c(N3CCNCC3)c(C=O)c3ccccc32)cc1` [Example 11B-9, 2-(Piperazin-1-yl)-1-(4-thiomethylphenyl)-1H-indole-3-carboxaldehyde], 4 µM. Same read-out and setting: in the case of `O=Cc1c(N2CCNCC2)n(-c2cccc(F)c2)c2ccccc12` [Example 11B-10, 2-(Piperazin-1-yl)-1-(3-fluorophenyl)-1H-indole-3-carboxaldehyde] it was 2.5 µM; in that of `Cc1cccc(-n2c(N3CCNCC3)c(C=O)c3ccccc32)c1` [Example 11B-11, 2-(Piperazin-1-yl)-1-(3-methylphenyl)-1H-indole-3-carboxaldehyde], 3 µM; in that of `O=Cc1c(N2CCNCC2)n(-c2cccnc2)c2ccccc12` [Example 13, 2-(Piperazin-1-yl)-1-(pyridin-3-yl)-1H-indole-3-carboxaldehyde], 3 µM. In the case of `CC(C)(C)OC(=O)NCCN1CCN(c2c(C=O)c3ccccc3n2-c2ccccc2)CC1` [Example 19], the IC50 came out at 8.8 µM. Same read-out and setting: next, `O=Cc1c(N2CC3CC2CN3)n(-c2ccccc2)c2ccccc12` (centres unmarked) [Example 21]: 5.1 µM. On the same count and under the same terms, next, `O=Cc1c(N2CCCNCC2)n(-c2ccccc2)c2ccccc12` [Example 22, 2-[1,4]Diazepan-1-yl-1-phenyl-1H-indole-3-carboxaldehyde]: 4.5 µM. Same read-out and setting: next, `O=Cc1c(N2CCN(CCO)CC2)n(-c2ccccc2)c2ccccc12` [Example 41, 2-[4-(2-Hydroxethyl)piperazin-1-yl]-1-phenyl-1H-indole-3-carboxaldehyde Hydrochloride]: 43.1 µM; `O=Cc1c(N2CCOCC2)n(-c2ccccc2)c2ccccc12` [Example 43, 2-(Morpholin-4-yl)-1-phenyl-1H-indole-3-carboxaldehyde]: 11.4 µM. With `CC(C)(C)OC(=O)N1CC2CC1CN2c1c(C=O)c2ccccc2n1-c1ccccc1` (centres unmarked) [Example 45, 5-(3-Formyl-1-phenyl-1H-indol-2yl)-2,5-diazabicyclo[2.2.1]heptane-2-carboxylic acid tert-butyl ester], the IC50 was determined as 5.1 µM. Still for that read-out and setting: in the case of `O=Cc1cccc(-n2c(N3CCNCC3)c(C=O)c3ccccc32)c1` [Example 46] it was 0.85 µM. Still for that read-out and setting: next, `O=Cc1c(N2CCNCC2)n(-c2ccc(-c3ccccc3)cc2)c2ccccc12` [Example 47, 1-(Biphenyl-4-yl)-2-piperazin-1-yl-1H-indole-3-carboxaldehyde Hydrochloride]: 6.9 µM; `CCc1ccc(-n2c(N3CCNCC3)c(C=O)c3ccccc32)cc1` [Example 48, 1-(4-Ethylphenyl)-2-(piperazin-1-yl)-1H-indole-3-carboxaldehyde Hydrochloride]: 15.5 µM.

On to `O=Cc1c(N2CCNCC2)n(-c2cccc(Br)c2)c2ccccc12` [Example 49, 1-(3-Bromophenyl)-2-piperazin-1-yl-1H-indole-3-carboxaldehyde], for which the IC50 was 1.9 µM. On the same count and under the same terms, next, `Cc1ccc(-n2c(N3CCNCC3)c(C=O)c3ccccc32)cc1[N+](=O)[O-]` [Example 50, 1-(4-Methyl-3-nitrophenyl)-2-(piperazin-1-yl)-1H-indole-3-carboxaldehyde]: 1.4 µM; `CN(C)c1ccc(-n2c(N3CCNCC3)c(C=O)c3ccccc32)cc1` [Example 51, 1-(4-Dimethylaminophenyl)-2-piperazin-1-yl-1H-indole-3-carboxaldehyde]: 26 µM.

On to `O=Cc1c(N2CCNCC2)n(-c2ccc(Oc3ccccc3)cc2)c2ccccc12` [Example 52, 1(4-Phenoxyphenyl)-2-(piperazin-1-y)l-1H-indole-3-carboxaldehyde], for which the concentration for half-maximal inhibition (IC50) was found to be 42.2 µM. As for `Cc1ccc(-n2c(N3CCNCC3)c(C=O)c3ccccc32)cc1` [Example 53, 1-(4-Methylphenyl)-2-(piperazin-1-yl)-1H-indole-3-carboxaldehyde], the IC50 came to 19.9 µM.

`O=Cc1c(N2CCNCC2)n(-c2ccc(F)cc2)c2ccccc12` [Example 54, 1-(4-Fluorophenyl)-2-(piperazin-1-yl)-1H-indole-3-carboxaldehyde Hydrochloride]: the IC50 was determined as 3.1 µM. Same read-out and setting: in the case of `O=Cc1c(N2CCNCC2)n(-c2cccc(Cl)c2)c2ccccc12` [Example 55] it was 4.1 µM; in that of `C=Cc1ccc(-n2c(N3CCNCC3)c(C=O)c3ccccc32)cc1` [Example 56, 2-(Piperazin-1-yl)-1-(4-vinylphenyl)-1H-indole-3-carboxaldehyde], 1.5 µM. Still for that read-out and setting: in the case of `O=Cc1c(N2CCNCC2)n(-c2cccc(CO)c2)c2ccccc12` [Example 57, 1-(3-Hydroxymethylphenyl)-2-(piperazin-1-yl)-1H-indole-3-carboxaldehyde] it was 1.4 µM; in that of `CCOc1cccc(-n2c(N3CCNCC3)c(C=O)c3ccccc32)c1` [Example 58, 1-(3-Ethoxyphenyl)-2-(piperazin-1-yl)-1H-indole-3-carboxaldehyde], 0.85 µM. Same read-out and setting: in the case of `CCCCc1ccc(-n2c(N3CCNCC3)c(C=O)c3ccccc32)cc1` [Example 61, 1-(4-Butylphenyl-2-(piperazin-1-yl)-1H-indole-3-carboxaldehyde Hydrochloride] it was 2.7 µM; in that of `CC(=O)Nc1cccc(-n2c(N3CCNCC3)c(C=O)c3ccccc32)c1` [Example 62, N-{3-[3-Formyl-2-(piperazin-1-yl)-indol-1-yl]phenyl}-acetamide Hydrochloride], 0.99 µM; in that of `N#Cc1ccc(-n2c(N3CCNCC3)c(C=O)c3ccccc32)cc1` [Example 63, 4-[3-Formyl-2-(piperazin-1-yl)-indol-1-yl]-benzonitrile], 2.3 µM.
